The record followed here is patent publication US20150253323A1, “METHODS AND KITS FOR HIGH THROUGHPUT SCREENING FOR COMPOUNDS TARGETING DNA-BINDING AND RNA-BINDING PROTEINS” (The Florida International University Board of Trustees, priority 2014, published 2015).

By IC50 is commonly meant the concentration that gives 50% inhibition. Broadly, the inhibition is the drop in the measured response relative to a control, in per cent.

“Also recorded” adds a separate entry of the source. Counter-ions that a name gives are not always drawn. Like-named read-outs stand apart in the source and are kept apart here.

The subject of one series is 3T3-L1 cells. As to the kind of experiment: Oil Red O staining of differentiated 3T3-L1 cells (adipogenesis). Type of series: cell-based, mouse. The settings on record: for IC50: 3T3-L1, Oil Red O absorbance 492 nm, read-out: inhibition IC50 of neutral lipids in the differentiated cells. The procedure: Mouse pre-adipocytes (3T3-L1 cells) were a gracious gift from Dr Jun Liu at Mayo Clinic. 3T3-L1 cells were maintained in DMEM supplemented with 10% FBS, 100 U/ml penicillin, 100 μg/ml streptomycin and 5 μg/ml plasmocin. The cells were grown under normal culture conditions of 5% CO2 and humidity. Cells were maintained for a minimum of three passages in linear growth prior to differentiation. To differentiate the 3T3-L1 pre-adipocytes into adipocytes, we used the protocol previously described by Zebisch et al. (Zebisch, K., et al. (2012)). Briefly, 3T3-L1 pre-adipocytes were sub-cultured in DMEM supplemented with 5% newborn calf serum, 100 U/ml penicillin, 100 μg/ml streptomycin and 5 μg/ml plasmocin (Basal Media 1—BM1). The cells were then plated at 6×10^5 cells per dish in 35-mm dishes, 3×10^5 cells per well in a 12-well plate, 1.5×10^5 cells in a 24-well plate or 3.0×10^4 cells per well in a 96-well plate. The cells were grown to confluency with BM1 replacement every other day. Following 48 h of confluency, 3T3-L1 cells were treated with Differentiation medium 1 (DM1), which is BM1 supplemented with […] iso-butyl-methylxanthine, 0.25 μM dexamethasone, 1 μg/ml insulin and 2 μg/ml rosiglitazone. After 48 h, the medium was replaced with differentiation medium 2 (DM2); this is BM1 supplemented with 1 μg/ml insulin. On the seventh day, the cells were placed in DMEM with FBS. The cells were cultured to the date indicated in the experiments below with media changes every other day. The presence of adipogenesis was confirmed by microscopic detection of adipose bodies in the cells. For our experiments, only cultures with >80% differentiation were used.
Following differentiation and drug treatment, Oil Red O staining was used to qualitatively and quantitatively assess the level of neutral lipids in the differentiated cells. For qualitative assessment by phase microscopy, cells were washed twice in PBS and then fixed with 10% formalin for 30 min at room temperature. Oil Red O was reconstituted at 300 mg per 100 ml of isopropanol. The Oil Red O solution was prepared for staining by adding 20 ml of deionized water to 30 ml of the Oil Red O stock solution and filtered. The cells were then incubated for 5 min in 60% isopropanol. The Oil Red O working solution was then added to cells for 5 min. The monolyers were then rinsed clean with deionized water. The cells were then visualized using phase microscopy on the EVOS XL Core microscope. For quantitative assessment of adipogenesis in 96-well formats, cells were lysed in dimethylsulfoxide (DMSO) following the water wash of Oil Red O stained cells. The DMSO released the intracellular Oil Red O into the solution. The absorbance (492 nm) was measured using the BioTek Synergy H1 plate reader.

A further series has as its system HMGA2-FL814 interaction. The experiment in a line: PDI-ELISA for HMGA2 binding to DNA oligomer FL814. To be noted: for OD450 of the PDI-ELISA in the presence of the compound: 100 nM compound, 100 nM FL814, 1 μM HMGA2, 2×SSCT, OD450 without drug 1.44; for inhibition of HMGA2-FL814 interactions: compound at 100 nM in 2×SSCT, FIG. 12 / Table 1; for IC50: netropsin titration. Further details: species or system mammalian. (An ELISA detects its analyte on a solid surface through an enzyme-linked reagent.)

Another series deals with FL814. As to the kind of experiment: Competition dialysis assay, free FL814. The format is binding.
Another series has as its target T1, HMGA2-FL814 complex (Mus musculus, UniProt P52927).
T1 sequence (P52927 2-108 limits assumed): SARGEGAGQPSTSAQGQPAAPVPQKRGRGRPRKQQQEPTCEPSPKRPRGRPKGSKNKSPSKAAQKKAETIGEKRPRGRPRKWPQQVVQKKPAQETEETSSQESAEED
The experiment in a line: Competition dialysis assay, HMGA2-FL814 complex. To be noted: 3 μM complex dialyzed against 0.73 μM TMPyP4, 72 h, 2×SSCT.

The next series deals with HMGA2. The experiment in a line: In-cell western analysis of HMGA2 expression in 3T3-L1 cells. The format is cell-based, mouse. To be noted: normalized to TO-PRO-3, FIGS. 17F and G. The procedure: Specific protein levels were analyzed using in-cell western technology (Egorina, E. M., et al (2006)). During differentiation and drug administration, 3T3-L1 cells were fixed in 4% paraformaldehyde in PBS for 25 min at room temperature. Pre-adipocytes were quenched by washing the cells in 100 mM glycine for 5 min at room temperature. The cells were permeabilized by incubating the cells in 0.2% Triton X-100 in PBS for 30 min at room temperature. The cells were then blocked using LICOR Odyssey Blocking Buffer (LI-COR Biosciences, 927-40100) for 1 h at room temperature. Cells were then incubated with a primary antibody for HMGA2 (Cell Signaling Technologies #5269) at a 1:500 dilution in LI-COR Odyssey Blocking Buffer supplemented with 0.1% Tween-20 for 2.5 h at room temperature. The cells were washed in 0.1% Tween in PBS. Secondary antibodies (IRDye 800CW anti-rabbit, LI-COR Biosciences, 926-32211) were incubated at a dilution of 1:1000 in LI-COR Blocking Buffer supplemented with 0.1% Tween-20 for 1 h. Concurrent to the addition of secondary antibody TO-PRO-3 (Invitrogen) was added at a 1:1000 dilution as a normalization control for cell number and incubated for 1 h. The cells were washed again in 0.1% Tween-20 in PBS. Plates were then scanned on the LICOR Biosciences Odyssey CLx Infrared Imaging System and quantified using the LI-COR in-cell western analysis in Image Studio.

Series [1] addresses T2, HMGA2 (high mobility group protein AT-hook 2) (mammalian, UniProt P52926 P52926:2-109).
T2 sequence: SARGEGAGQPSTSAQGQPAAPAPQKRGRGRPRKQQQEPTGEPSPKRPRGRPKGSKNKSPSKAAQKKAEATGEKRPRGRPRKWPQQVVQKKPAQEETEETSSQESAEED
As to the kind of experiment: ELONA; duplex without hairpin loop; 100 nM DNA, 1 uM HMGA2; binding enhanced by TMPyP4. The settings on record: tags: purified as in Cui et al. 2007.

On to `C=C1C(=O)OC(CCCCCCCC)C1C(=O)O` (stereo not drawn) [C-75], for which the IC50 with 3T3-L1 cells came to 3700 ± 800 nM.
Regarding `C[n+]1ccc(-c2c3nc(c(-c4cc[n+](C)cc4)c4ccc([nH]4)c(-c4cc[n+](C)cc4)c4nc(c(-c5cc[n+](C)cc5)c5ccc2[nH]5)C=C4)C=C3)cc1` [TMPyP4], the “enhancement of HMGA2 binding to double stranded oligomer (FL842/FL843) without loop” value in the series on HMGA2-FL814 interaction (100 nM annealing product of FL842 and FL843, 1 μM HMGA2, FIG. 15B) is “able to enhance the binding; also recorded: enhancement”. The “OD450 of the PDI-ELISA in the presence of the compound” value with HMGA2-FL814 interaction is given as “Very high”. Moreover, the “enhancement of HMGA2 binding to FL814 (OD450)” value in the series on HMGA2-FL814 interaction (titration, 100 nM FL814, 1 μM HMGA2, FIG. 14) is “dramatically enhance; also recorded: significantly enhanced”. In the series with FL814 (3 μM FL814 dialyzed against 0.73 μM TMPyP4, 72 h, 2×SSCT), the “binding to FL814” value is reported as “tightly”. For the same molecule, the “binding stoichiometry to FL814” value in the series with FL814 (competition dialysis, 0.73 μM TMPyP4) was “two molecules of TMPyP4 bind to one molecule of FL814”. The “binding to the FL814-HMGA2 complex” value on HMGA2-FL814 complex is recorded as “tightly”.
Consider `Cn1cc(NC(=O)c2cc(NC(=O)CN=C(N)N)cn2C)cc1C(=O)NCCC(=N)N` [Netropsin, netropsin dihydrochloride], for which the “OD450 of the PDI-ELISA in the presence of the compound” value in the series on HMGA2-FL814 interaction came out at 0.152. The “inhibition of HMGA2-DNA interactions (OD450 back to background)” value in the series with HMGA2-FL814 interaction (500 nM or 1 μM netropsin, FIG. 10A, dihydrochloride) was “complete inhibition; also recorded: completely inhibited”. Further, the “inhibition of HMGA2-FL814 interactions” value with HMGA2-FL814 interaction (dihydrochloride) is listed as “completely inhibit”; in the series with HMGA2-FL814 interaction (listed as netropsin, dihydrochloride), “potently inhibit”. In addition, the IC50 at HMGA2-FL814 interaction (FIG. 10B, 0.5 μM HMGA2, read-out: inhibitory IC50 of HMGA2 binding to FL814) was ~10 nM; on HMGA2-FL814 interaction (FIG. 11B, three titration experiments, read-out: apparent inhibitory IC50 of HMGA2 binding to FL814), 9.3 ± 0.78 nM; in the series on 3T3-L1 cells (Mus musculus), 7900 ± 1100 nM. In the series on HMGA2, the “HMGA2 expression in fully differentiated 3T3-L1 cells in the presence of the compound” value was “expressed”. Moreover, the “inhibition of differentiation of 3T3-L1 cells to adipocytes” value in the series on 3T3-L1 cells (FIGS. 17A-17G) is reported as “strongly inhibited”. Moreover, the inhibition at 10 µM in the series on 3T3-L1 cells (Mus musculus, 10 μM, Oil red O staining, differentiated 3T3-L1 cells, read-out: inhibition of neutral lipid production) is > 50%.

B1: FL842/FL843 duplex (dsDNA)
DNA 1: CCCCCCATATTCGCGATTATTGCGC
DNA 2: GCGCAATAATCGCGAATATGGGGGG
For the molecule B1, the binding result in series [1] was “binds”.
